These results are taken from PubChem BioAssay (NCI).

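Briefly, cells in 96-well plates were exposed to five compound concentrations for 48 h, and endpoints were estimated by linear interpolation. Here, GI50 denotes the concentration required for 50% inhibition of growth. At the TGI there is no net growth.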 A value given as a limit tells only on which side of the number the result lay.

Test systems include TK-10 renal; HS 578T breast; IGROV1 ovarian; SK-MEL-2 melanoma; NCI-H522 lung; K-562 leukemia; SW-620 colon; MOLT-4 leukemia; SF-295 CNS; SF-539 CNS.
Common to all, as to assay: inhibition of tumour cell growth, NCI panel, 48 h

`COc1c(C(C)=O)c(OCCCCOc2c(C(C)=O)c(OC)c3ccoc3c2OC)c(OC)c2occc12`: the GI50 is over 23.4 µM with TK-10 renal; over 100 µM with HS 578T breast; 7.58 µM in the assay on IGROV1 ovarian; 2.76 µM in the assay with SK-MEL-2 melanoma; 2.63 µM in the assay on NCI-H522 lung; 5.45 µM in the assay on K-562 leukemia. In addition, the GI50 in the assay with SW-620 colon is over 100 µM; in the assay on MOLT-4 leukemia, 1.23 µM; in the assay with SF-295 CNS, 1.35 µM; in the assay on SF-539 CNS it was over 100 µM. In addition, the TGI with TK-10 renal, with HS 578T breast, in the assay with IGROV1 ovarian, in the assay with SK-MEL-2 melanoma, in the assay on NCI-H522 lung and with K-562 leukemia was over 100 µM throughout. Moreover, the TGI with SW-620 colon is over 100 µM; in the assay on MOLT-4 leukemia it was 3.1 µM; in the assay on SF-295 CNS, over 100 µM; in the assay on SF-539 CNS, over 100 µM.
`CN(C)c1ccc(Nc2c3ccccc3nc3ccccc23)cc1`: the GI50 in the assay with TK-10 renal is 0.937 µM; in the assay on HS 578T breast, 1.65 µM; with IGROV1 ovarian it was 0.59 µM; in the assay with SK-MEL-2 melanoma it was 0.821 µM; with NCI-H522 lung, 0.685 µM; with K-562 leukemia it was 0.847 µM. The GI50 in the assay on SW-620 colon is 0.665 µM; in the assay with MOLT-4 leukemia, 0.357 µM; with SF-295 CNS, 0.579 µM; with SF-539 CNS, 1.72 µM. In addition, the TGI with TK-10 renal was found to be 4.19 µM; in the assay on HS 578T breast, 9.47 µM; with IGROV1 ovarian, 2.91 µM; with SK-MEL-2 melanoma, 2.83 µM; in the assay with NCI-H522 lung, 2.52 µM; with K-562 leukemia it was 7.83 µM. The TGI with SW-620 colon turned out to be 3.67 µM; with MOLT-4 leukemia it was 5.18 µM; in the assay with SF-295 CNS it was 2.75 µM; with SF-539 CNS it was 8.33 µM.
As for `[2H]C([2H])([2H])NC(=O)c1nnc(NC(=O)C2CC2)cc1Nc1cccc(-c2ncn(C)n2)c1OC`, the GI50 with TK-10 renal is 8.28 µM; in the assay on HS 578T breast it was 14.7 µM; in the assay on IGROV1 ovarian, 6.96 µM; in the assay on SK-MEL-2 melanoma it was 10.6 µM; with NCI-H522 lung, 23 µM; with K-562 leukemia it was 31.2 µM. For the same molecule, the GI50 was 41.6 µM with SW-620 colon, 0.934 µM with MOLT-4 leukemia, 53.4 µM with SF-295 CNS and 61.1 µM with SF-539 CNS. The TGI in the assay on TK-10 renal is over 100 µM; with HS 578T breast, over 100 µM; in the assay on IGROV1 ovarian it was over 100 µM; with SK-MEL-2 melanoma, 83.8 µM; in the assay on NCI-H522 lung it was over 100 µM; with K-562 leukemia, over 100 µM. The TGI in the assay with SW-620 colon, in the assay with MOLT-4 leukemia, in the assay with SF-295 CNS and in the assay with SF-539 CNS was over 100 µM in each case.
Turning to `CCCCC(SC(=S)N1CCCC1)C(=O)Nc1nc(CC(=O)OCC)cs1` (stereo not given), the GI50 in the assay on TK-10 renal was over 100 µM; in the assay on HS 578T breast it was over 100 µM; with IGROV1 ovarian, 7.98 µM; in the assay on SK-MEL-2 melanoma, 36.1 µM; in the assay on NCI-H522 lung, 6.87 µM; with K-562 leukemia, 15.6 µM. Further, the GI50 with SW-620 colon was 68.6 µM; in the assay on MOLT-4 leukemia it was 1.91 µM; in the assay on SF-295 CNS, 47.3 µM; in the assay with SF-539 CNS, 72.4 µM. The TGI with TK-10 renal, in the assay with HS 578T breast, with IGROV1 ovarian, with SK-MEL-2 melanoma, with NCI-H522 lung and in the assay on K-562 leukemia was over 100 µM throughout. Besides, the TGI in the assay with SW-620 colon, with MOLT-4 leukemia, with SF-295 CNS and in the assay with SF-539 CNS was over 100 µM throughout.
`COc1ccc(-c2c(C)c(C(=O)O)nc(-c3ccc4c(O)c(OC)c5c(c4n3)=NC(C)(C)N=5)c2N)c(O)c1OC`: the TGI with TK-10 renal was 72.7 µM; in the assay on HS 578T breast, over 100 µM; in the assay with IGROV1 ovarian, over 100 µM; with SK-MEL-2 melanoma, 41.4 µM; in the assay with NCI-H522 lung it was 24.5 µM; with K-562 leukemia, 47.9 µM. Also, the TGI was 35.4 µM in the assay with SW-620 colon, 29.7 µM in the assay on MOLT-4 leukemia, 38.6 µM with SF-295 CNS and 35.5 µM in the assay with SF-539 CNS.
Turning to `O=[N+]([O-])c1cccc(/C=N/NC2=CS(=O)(=O)C=C2)c1`, the TGI in the assay with TK-10 renal, in the assay with HS 578T breast, in the assay with IGROV1 ovarian, in the assay with SK-MEL-2 melanoma, in the assay with NCI-H522 lung and in the assay on K-562 leukemia was over 100 µM throughout. In addition, the TGI in the assay with SW-620 colon, in the assay on MOLT-4 leukemia, in the assay on SF-295 CNS and in the assay on SF-539 CNS was over 100 µM throughout.
For `COc1ccc(/C=C(/c2ccccc2)[N+](=O)[O-])c(OC)c1`, the GI50 in the assay on TK-10 renal was 2.24 µM; in the assay on HS 578T breast, 2.2 µM; in the assay on IGROV1 ovarian, 1.47 µM; in the assay on SK-MEL-2 melanoma it was 1.91 µM; in the assay on NCI-H522 lung, 1.56 µM; in the assay with K-562 leukemia, 0.494 µM. Further, the GI50 in the assay with SW-620 colon was 1.73 µM; in the assay with MOLT-4 leukemia it was 2.14 µM; in the assay on SF-295 CNS, 1.97 µM; in the assay on SF-539 CNS, 1.58 µM. The TGI is 4.18 µM in the assay on TK-10 renal; 6.65 µM in the assay on HS 578T breast; 2.95 µM with IGROV1 ovarian; 5.28 µM in the assay with SK-MEL-2 melanoma; 4.02 µM in the assay with NCI-H522 lung; 38.2 µM in the assay with K-562 leukemia. For the same molecule, the TGI in the assay on SW-620 colon is 4.08 µM; with MOLT-4 leukemia, 6.77 µM; in the assay on SF-295 CNS, 3.86 µM; in the assay on SF-539 CNS, 2.94 µM.
Turning to `COC(=O)c1c2c(c(C)[n+]([O-])c1C)C(=O)C=C(NCc1ccccc1)C2=O`, the GI50 in the assay with TK-10 renal is 2.92 µM; in the assay with HS 578T breast it was 2.19 µM; in the assay on IGROV1 ovarian, 0.492 µM; with SK-MEL-2 melanoma, 1.25 µM; in the assay with NCI-H522 lung, 1.33 µM; in the assay on K-562 leukemia, 0.418 µM. The GI50 was 0.375 µM in the assay with SW-620 colon, 0.619 µM in the assay on MOLT-4 leukemia, 1.11 µM in the assay with SF-295 CNS and 0.711 µM in the assay with SF-539 CNS. For the same molecule, the TGI with TK-10 renal came out at 7.19 µM; in the assay on HS 578T breast it was 6.88 µM; in the assay with IGROV1 ovarian, 1.87 µM; in the assay on SK-MEL-2 melanoma, 2.82 µM; in the assay on NCI-H522 lung it was 3.25 µM; with K-562 leukemia, 3.05 µM. In addition, the TGI in the assay with SW-620 colon is 1.54 µM; in the assay with MOLT-4 leukemia it was 2.83 µM; with SF-295 CNS, 2.35 µM; in the assay on SF-539 CNS it was 1.94 µM.
